Assay results reported in paper PMC9784969, “SARS-CoV-2 Inhibitors Identified by Phenotypic Analysis of a Collection of Viral RNA-Binding Molecules” (Pharmaceuticals, 2022).

Tests used:
3_S2m-23fl RNA hairpin = test: fluorescence intensity binding assay; parameters: species or system SARS-CoV-2; conditions: 0 mM NaCl, pH 6.6, 25 °C; read-out: Kd
Description: The 3_S2m-23fl RNA oligonucleotide used in fluorescence intensity experiments was purchased HPLC-purified from Integrated DNA Technologies (Coralville, IA, USA). […] The mixture of tRNAs from E. coli MRE 600 (identified as tRNA^mix) used to evaluate specificity was obtained from Roche (Basel, Switzerland).
3_S2m-23fl (at 100 nM concentration) was snap-cooled in a buffer containing sodium phosphate pH 6.6, 0 or 150 mM NaCl, and 0.1 mM EDTA and incubated with increasing amounts of compound. The specificity of the RNA–ligand interactions was evaluated by repeating the assays in the presence of a 100-fold molar excess (10 μM) of tRNA^mix. The equilibrium dissociation constants Kd were obtained by fitting the dose–response curves to a two-state binding model [41] with Prism software (GraphPad Software, San Diego, CA, USA). All fluorescence binding assays were carried out three times for each molecule and condition.

PRF RNA = test: ligand-based 1H NMR (1D, CPMG, wLOGSY); type: binding, SARS-CoV-2
5_SL2+3 RNA = test: ligand-based 1H NMR (1D, CPMG, wLOGSY); type: binding, SARS-CoV-2
3_S2m RNA [1] = test: RNA-based 1H NMR (TOCSY) titration; type: binding, SARS-CoV-2; conditions: RNA:ligand up to 1:4
Description: The RNA samples were previously diafiltrated into an aqueous solution containing 25 mM potassium phosphate (pH 6.2), 50 mM KCl and 0.1 mM EDTA, and the titration experiments were carried out at 27 °C using 50 μM RNA samples in 100% D2O. The 3_S2m titrations were duplicated at 25 °C using 120 μM RNA samples and additionally acquiring NOESY spectra (250 ms mixing time) at 1:0 and 1:4 ratios. For this system, the chemical shift perturbation analyses included 63 H1’, H2’, and aromatic 3_S2m resonances. The isolated 3_S2m hairpin was studied at two different temperatures (25 and 35 °C) using 120 and 500 μM RNA samples and similar TOCSY and NOESY (120 and 250 ms mixing times) experiments. […] The relaxation delay for NOESY and TOCSY acquisition was 2 and 1.5 s, respectively.

in vitro = conditions: human, uninfected 293T-ACE2 cells
3_S2m RNA [2] = test: ligand-based 1H NMR (1D, CPMG, wLOGSY); type: binding, SARS-CoV-2
[3] = average of aliphatic protons, RNA:ligand 1:100 (clomiphene) or 1:50 (trim, qz2)
[4] = average of aromatic protons, RNA:ligand 1:100 (clomiphene) or 1:50 (trim, qz2)

Q: Which results are given for `CC(C)CCN1CCC(CNc2nc3ccccc3c(=O)[nH]2)CC1` [qz2]?
A: Kd (3_S2m-23fl RNA hairpin): 26.7 µM; CPMG variation (PRF RNA; [3]): -10.71%; LB (PRF RNA; [3]): -3.21%; LOGSY factor (PRF RNA; [3]): 3.74%; CPMG variation (PRF RNA; [4]): 13.0%; LB (PRF RNA; [4]): -0.27%; LOGSY factor (PRF RNA; [4]): 22.5%; CPMG variation (PRF RNA; qz2 peak A, RNA:ligand 1:50): -12.9%; LB (PRF RNA; qz2 peak A, RNA:ligand 1:50): -3.66%; LOGSY factor (PRF RNA; qz2 peak A, RNA:ligand 1:50): 3.10%; CPMG variation (PRF RNA; qz2 peak C/D, RNA:ligand 1:50): -17.7%; LB (PRF RNA; qz2 peak C/D, RNA:ligand 1:50): -8.83%; LOGSY factor (PRF RNA; qz2 peak C/D, RNA:ligand 1:50): 7.49%; CPMG variation (PRF RNA; qz2 peak E/B, RNA:ligand 1:50): -18.2%; LB (PRF RNA; qz2 peak E/B, RNA:ligand 1:50): 3.04%; LOGSY factor (PRF RNA; qz2 peak E/B, RNA:ligand 1:50): 2.11%; CPMG variation (PRF RNA; qz2 peak F, RNA:ligand 1:50): -0.60%; LB (PRF RNA; qz2 peak F, RNA:ligand 1:50): -8.91%; LOGSY factor (PRF RNA; qz2 peak F, RNA:ligand 1:50): 3.69%; CPMG variation (PRF RNA; qz2 peak G, RNA:ligand 1:50): -7.24%; LB (PRF RNA; qz2 peak G, RNA:ligand 1:50): 1.78%; LOGSY factor (PRF RNA; qz2 peak G, RNA:ligand 1:50): 2.32%; CPMG variation (PRF RNA; qz2 peak I, RNA:ligand 1:50): 13.2%; LB (PRF RNA; qz2 peak I, RNA:ligand 1:50): -0.20%; LOGSY factor (PRF RNA; qz2 peak I, RNA:ligand 1:50): 13.3%; CPMG variation (PRF RNA; qz2 peak J, RNA:ligand 1:50): 11.4%; LB (PRF RNA; qz2 peak J, RNA:ligand 1:50): -1.72%; LOGSY factor (PRF RNA; qz2 peak J, RNA:ligand 1:50): 42.7%; CPMG variation (PRF RNA; qz2 peak K, RNA:ligand 1:50): 14.6%; LB (PRF RNA; qz2 peak K, RNA:ligand 1:50): 1.11%; LOGSY factor (PRF RNA; qz2 peak K, RNA:ligand 1:50): 11.4%; CPMG variation (5_SL2+3 RNA; [3]): -3.85%; LB (5_SL2+3 RNA; [3]): -0.01%; LOGSY factor (5_SL2+3 RNA; [3]): 2.85%; CPMG variation (5_SL2+3 RNA; [4]): 4.67%; LB (5_SL2+3 RNA; [4]): 1.97%; LOGSY factor (5_SL2+3 RNA; [4]): 5.80%; CPMG variation (5_SL2+3 RNA; qz2 peak A, RNA:ligand 1:50): 3.62%; LB (5_SL2+3 RNA; qz2 peak A, RNA:ligand 1:50): 6.29%; LOGSY factor (5_SL2+3 RNA; qz2 peak A, RNA:ligand 1:50): 1.74%; CPMG variation (5_SL2+3 RNA; qz2 peak C/D, RNA:ligand 1:50): -2.36%; LB (5_SL2+3 RNA; qz2 peak C/D, RNA:ligand 1:50): -0.32%; LOGSY factor (5_SL2+3 RNA; qz2 peak C/D, RNA:ligand 1:50): 3.84%; CPMG variation (5_SL2+3 RNA; qz2 peak E/B, RNA:ligand 1:50): -11.8%; LB (5_SL2+3 RNA; qz2 peak E/B, RNA:ligand 1:50): 8.30%; LOGSY factor (5_SL2+3 RNA; qz2 peak E/B, RNA:ligand 1:50): 4.57%; CPMG variation (5_SL2+3 RNA; qz2 peak F, RNA:ligand 1:50): -1.52%; LB (5_SL2+3 RNA; qz2 peak F, RNA:ligand 1:50): -13.0%; LOGSY factor (5_SL2+3 RNA; qz2 peak F, RNA:ligand 1:50): 2.30%; CPMG variation (5_SL2+3 RNA; qz2 peak G, RNA:ligand 1:50): -3.33%; LB (5_SL2+3 RNA; qz2 peak G, RNA:ligand 1:50): 3.46%; LOGSY factor (5_SL2+3 RNA; qz2 peak G, RNA:ligand 1:50): 1.79%; CPMG variation (5_SL2+3 RNA; qz2 peak I, RNA:ligand 1:50): 4.89%; LB (5_SL2+3 RNA; qz2 peak I, RNA:ligand 1:50): 5.64%; LOGSY factor (5_SL2+3 RNA; qz2 peak I, RNA:ligand 1:50): 6.13%; CPMG variation (5_SL2+3 RNA; qz2 peak J, RNA:ligand 1:50): 5.88%; LB (5_SL2+3 RNA; qz2 peak J, RNA:ligand 1:50): -6.27%; LOGSY factor (5_SL2+3 RNA; qz2 peak J, RNA:ligand 1:50): 7.22%; CPMG variation (5_SL2+3 RNA; qz2 peak K, RNA:ligand 1:50): 3.01%; LB (5_SL2+3 RNA; qz2 peak K, RNA:ligand 1:50): 6.54%; LOGSY factor (5_SL2+3 RNA; qz2 peak K, RNA:ligand 1:50): 4.04%; RNA chemical shift perturbations (3_S2m RNA [1]): smaller perturbations; CC50 at 2 days (in vitro): > 6.6 µM; CPMG variation (3_S2m RNA [2]; [3]): -0.71%; LB (3_S2m RNA [2]; [3]): 1.30%; LOGSY factor (3_S2m RNA [2]; [3]): 3.15%; CPMG variation (3_S2m RNA [2]; [4]): 10.3%; LB (3_S2m RNA [2]; [4]): 6.50%; LOGSY factor (3_S2m RNA [2]; [4]): 11.1%; CPMG variation (3_S2m RNA [2]; qz2 peak A, RNA:ligand 1:50): 6.71%; LB (3_S2m RNA [2]; qz2 peak A, RNA:ligand 1:50): 4.87%; LOGSY factor (3_S2m RNA [2]; qz2 peak A, RNA:ligand 1:50): 1.60%; CPMG variation (3_S2m RNA [2]; qz2 peak C/D, RNA:ligand 1:50): -1.93%; LB (3_S2m RNA [2]; qz2 peak C/D, RNA:ligand 1:50): 2.61%; LOGSY factor (3_S2m RNA [2]; qz2 peak C/D, RNA:ligand 1:50): 3.32%; CPMG variation (3_S2m RNA [2]; qz2 peak E/B, RNA:ligand 1:50): -10.6%; LB (3_S2m RNA [2]; qz2 peak E/B, RNA:ligand 1:50): 11.4%; LOGSY factor (3_S2m RNA [2]; qz2 peak E/B, RNA:ligand 1:50): 6.11%; CPMG variation (3_S2m RNA [2]; qz2 peak F, RNA:ligand 1:50): 6.38%
